Assay results published in patent US4564476A, “Aryl fatty acid leukotriene synthesis inhibitors” (McNeilab, Inc., priority 1984, dated 1986).

Assays:
[1] = tested on: guinea pig lung parenchymal tissue; test: Immunologically Mediated Contraction of the Parenchymal Strip (IMCPS); parameters: species or system guinea pig (male Hartley strain); conditions: Cavia porcellus, egg albumin induced contraction of sensitized guinea pig lung parenchymal strip, with chlorpheniramine 10.0 μM and indomethacin 100.0 μM, relative to control tissue, read-out: IMCPS % inhib. 100 μM
Procedure: (a) Immunologically Mediated Contraction of the Parenchymal Strip (IMCPS)
It is a modification of the procedure published by K. Forsberg and L. Sorenby in Agents and Actions, Vol. 9 pp. 364-368 (1978). In this test, male Hartley strain guinea pigs weighing 400 to 600 g were sensitized by subcutaneous administration of chicken egg albumin (Sigma A-5503, 1.0 mg, 0.5% solution) and bordetella pertussis, 11×10^9 cells (Massachusetts Public Health Biological Labs) 4 to 8 weeks prior to the experiment. The animals were sacrificed, the heart and lungs were removed en bloc and placed in Krebs solution at room temperature. Lung strips (2.5 cm in length) were cut from the peripheral edge of each lobe. Two strips were removed from each animal and were trimmed to be of equal length. Each strip was suspended in an isolated organ bath (10.0 ml) containing oxygenated Krebs buffer solution at 37.5° C. then attached to a force displacement transducer (Grass FT03) and placed under an initial tension of 1.0 g. The tissues were allowed to equilibrate for 45-60 minutes, during which the bathing solution was changed several times. At the end of the equilibration period, chlorpheniramine (10.0 μM) and indomethacin (100.0 μM) were added to eliminate the contribution of histamine and prostaglandins to the contractile response. The two tissues from each animal were matched so that one tissue served as a control, and the test drug dissolved in DMSO was added to the bath containing the other tissue at a final concentration of 100 μM. After 30 minutes, egg albumin was added to each bath and the contractile response was measured as milligrams of tension developed as recorded on a Grass Model 7D polygraph.

[2] = tested on: lipoxygenase metabolites released or generated from human granulocyte cells; test: Human Granulocyte Assay for Lipoxygenase Products (HGALP); type: cell-based; conditions: [3H]-arachidonic acid prelabeled human granulocytes, 10 μM ionophore A23187 challenge, 14 μM indomethacin
Procedure: (b) Human Granulocyte Assay for Lipoxygenase Products (HGALP)
This test is a measurement of the inhibition of the synthesis or release of [3H]-labeled lipoxygenase metabolites released or generated from human granulocyte cells that are prelabeled with [3H]-arachidonic acid. These metabolites include the leukotrienes (e.g., LTB4) which are potent mediators of inflammation and allergy. In this test, a granulocyte enriched fraction is prepared from freshly drawn human blood (50 ml/donor) by standard techniques involving unit gravity separation on ficoll hypaque. Cells are prelabeled with [3H]-arachidonic acid (20 μCi in 2 ml cell suspension) during a 30 min. incubation at 37° C. After washing out unincorporated label, the radiolabeled cells are brought up in incubation buffer (Minimum Essential Medium containing 14 μM indomethacin) to a 10^7 cell/ml concentration. Cell suspensions (1 ml/sample) are preincubated for 5 min. in the presence or absence of test drugs delivered in 5 μl dimethylsulfoxide (DMSO). Cell suspensions are challenged with 10 μM ionophore A23187 to activate the calcium-dependent metabolism of [3H]-arachidonic acid. After a 5 min. incubation at 37° C., incubations are terminated by the addition of 1 ml ice cold phosphate buffered saline, and cells are pelleted by centrifugation. Supernatants are passed through C18 Sep Pak® cartridges which are then washed twice with 1 ml water. Lipoxygenase metabolites are eluted with two 1 ml volumes of methanol. Eluates are collected in scintillation vials and counted in Aqueous Counting Scintillant (ACS). Radioactivity eluted with methanol is a measure of lipoxygenase metabolites. Values are normalized to vehicle (5 μl DMSO) treated controls and expressed as percent inhibition. Triplicate determinations at each drug concentration are analyzed as log-dose response curves by linear regression analysis from which IC50 values are derived.

[3] = tested on: lipoxygenase metabolites released or generated from human granulocyte cells; test: as above; type: cell-based; conditions: [3H]-arachidonic acid prelabeled human granulocytes, 10 μM ionophore A23187

For `CC(C)(/C=C\CCCC(=O)O)COCc1ccccc1` [Example 1c, 7,7-Dimethyl-8-(phenylmethoxy)-5(Z)-octenoic Acid], the inhibition at 100 µM [1] was 79%.

`CN(C)C(=O)CCC/C=C\C(C)(C)COCc1ccccc1` [Example 2, N,N,7,7-Tetramethyl-8-(phenylmethoxy)-5(Z)-octenamide] was tested, and the inhibition at 100 µM [1] was 19% and the IC50 [2] was 42 µM.

Work on `CC(C)(/C=C\CCCCO)COCc1ccccc1` [Example 4, 7,7-Dimethyl-8-(phenylmethoxy)-5(Z)-octenol] yielded an inhibition at 100 µM [1] of 38% and an IC50 [2] of 17 µM.

With `COc1ccc(COCC(C)(C)/C=C\CCCC(=O)O)cc1` [Example 5c, 7,7-Dimethyl-8-(4-methoxyphenylmethoxy)-5(Z)-octenoic Acid] the inhibition at 100 µM [1] was 31% and the inhibition at 100 µM [3] was 18%.

With `COC(=O)CCC/C=C\C(C)(C)COCc1ccc(O)cc1` [Example 6, Methyl 7,7-dimethyl-8-(4-hydroxyphenylmethoxy)-5(Z)-octenoate] the inhibition at 100 µM [1] was 49% and the IC50 [2] was 39 µM.

In the case of `CC(C)(/C=C\CCCC(=O)O)COCc1ccc(O)cc1` [Example 7, 7,7-Dimethyl-8-(4-hydroxyphenylmethoxy)-5(Z) Octenoic Acid], the inhibition at 100 µM [1] is reported as 4% and the IC50 [2] is reported as 255 µM.

For `COC(=O)CCC/C=C\C(C)(C)C=Cc1ccc(Cl)cc1` [Example 8c, Methyl 9-(4-chlorophenyl)-7,7-dimethyl-5(Z),8-nonadienoate], the inhibition at 100 µM [1] was 15% and the IC50 [2] was 6.6 µM.

Molecule `CC(C)(C=Cc1ccc(Cl)cc1)/C=C\CCCC(=O)O` [Example 9, 9-(4-Chlorophenyl)-7,7-dimethyl-5(Z),8-nonadienoic acid] has an inhibition at 100 µM [1] of 76% and an IC50 [2] of 19 µM.

`CC(C)(/C=C\CCCC(=O)O)COCC=Cc1ccccc1` [Example 10c, 7,7-Dimethyl-8-(3-phenyl-2-propenoxy)-5(Z) octenoic Acid] showed an inhibition at 100 µM [1] of 44% and an inhibition at 100 µM [3] of 5%.

`CCCC=Cc1ccccc1COCC(C)(C)/C=C\CCCC(=O)O` [Example 11g, 7,7-Dimethyl-8-[2(1-pentenyl)phenylmethoxy]-5(Z)octenoic acid] gave an inhibition at 100 µM [1] of 40% and an IC50 [2] of 96 µM.
